{"source": "patent US9809562B2", "about": "“NAT10 modulators for treating or preventing laminopathies, aging and cancer” (CAMBRIDGE ENTERPRISE LIMITED, priority 2014, dated 2017)", "key": {"[1]": {"test_system": "HGPS primary fibroblasts (AG11498 and AG06267)", "test": "Misshapen nuclei in HGPS cells", "type": "cell-based, human", "details": "HGPS patient fibroblasts", "experimental": "U2OS and SaOS-2 osteosarcoma cells, HeLa cervical cancer cells, A431 melanoma cells, NCI-SNU5 gastric cancer cells, MRC-5 lung fibroblast cells and Werner syndrome patient-derived SV40 fibroblast cells were grown in Dulbecco's modified Eagle medium (DMEM, Sigma-Aldrich) supplemented with 10% fetal bovine serum (BioSera), 2 mM L-glutamine, 100 U per ml penicillin, 100 μg ml^−1 streptomycin. Normal skin primary fibroblasts GM03440 and Hutchinson Gilford Progeria Syndrome (HGPS) skin primary fibroblasts AG11498 and AG06297 were purchased from Coriell Cell Repositories and used between passage number 9-12 and 20-23 respectively. Cells were grown in DMEM supplemented as above. RPE-1 retinal pigment epithelial cells were grown in DMEM and Ham F12 mix medium supplemented as above and buffered with sodium bicarbonate. HMV-II melanoma cell line, 22RV1 prostate carcinoma cells, NCI-H82 and NCI-H69 lung carcinoma cells, and NCI-N87 gastric cancer cell lines were grown in RPMI-1640 medium (Sigma-Aldrich) supplemented as above. Stably transfected U2OS cells were maintained in standard medium containing 1 mg ml^−1 G418 (Invitrogen). The siRNA duplexes were obtained from Life Sciences: Lamin A/C stealth RNAi: […] (SEQ ID NO: 1) and […] (SEQ ID NO: 2), NAT10 stealth RNAi: […] (SEQ ID NO: 3), and as control siRNA, stealth RNAi negative control duplexes were used. Plasmid DNA and siRNA transfections were carried out using Lipofectamine 2000 and Lipofectamine RNAiMax (Life Sciences) respectively, following the manufacturer's instructions. Cells were analysed 48 to 72 hours after transfection.\nThe following KAT and KDAC inhibitors were used in the nuclear shape rescue screen, incubating cells with the molecules for 16 hours: trichostatin A (1 μM), sodium butyrate (5 mM), tubacin (10 μM), SAHA (5 μM), curcumin (10 μM), garcinol (50 μM), anacardic acid (1 μM), MB-3 (5 μM), 4-(4-chlorophenyl)-2-(2-cyclopentylidenehydrazinyl)thiazole (Compound 2) (50 μM), 4-(4-chlorophenyl)-2-(2-cyclopentylidene-1-(prop-2-yn-1-yl)hydrazinyl)thiazole (Compound 3) (50 μM) and cyclopentylidene-[4-(4-cyanophenyl)thiazol-2-yl)hydrazine (Compound 1) (Remodelin) (10 to 50 μM). For HGPS cellular fitness assays, Remodelin was incubated at 1 μM for 1 to 10 days, renewing the medium every 3 days. For long-term senescence assay, cells were kept and passaged in medium containing 1 μM Remodelin or DMSO only for 12 population doublings. Senescence was assessed after 8 days of Remodelin treatment when cells were at Population Doubling 12, and then after several weeks of Remodelin treatment, when cells reached Population Doubling 24 using the Senescence β-Galactosidase Staining Kit #9860 from Cell Signaling. Nocodazole, colchicine and latrunculin A (Sigma-Aldrich) were used at 200 ng/ml, 1 μg/ml and 1 μM respectively. […]"}, "SUN1 in siLMNA cells": {"test_system": "SUN1 in siLMNA cells", "test": "SUN1 expression and localization in siLMNA cells", "type": "cell-based, human", "experimental": "Cells were washed with PBS and fixed for 20 minutes with 2% PFA in PBS. Cells were permeabilised for 5 minutes with PBS/0.2% Triton X-100, and blocked with PBS/0.2% Tween 20 (PBS-T) containing 5% BSA. Coverslips were incubated for 1 hour with primary antibodies and for 30 minutes with appropriate secondary antibodies coupled to Alexa Fluor 488 or 594 fluorophores (Life Technologies), before being incubated with 2 μg/ml DAPI. Pictures were acquired with a FluoView 1000 confocal microscope (Olympus). For high resolution imaging, z-stacks were acquired with a Deltavision PersonalDV (Applied Precision, 1024×1024 CoolSNAP HQ2 camera, z-stack of 0.2 μm interval) or with a Deltavision OMX V3 in conventional mode (Applied Precision, 512×512 Cascade II cameras (Photometrics), z-stack of 0.125 μm interval) both equipped with a 100× UPlanSApo/1.40 oil objective (Olympus) and controlled with SoftWoRx software (Applied Precision). Deconvolutions were then performed with SoftWoRx (Applied Precision) in conservative mode. The different channels were acquired sequentially."}}}
{"smiles": "N#Cc1ccc(-c2csc(NN=C3CCCC3)n2)cc1", "note": "[Compound 1, 4-(4-Cyanophenyl)-2-(2-cyclopentylidenehydrazinyl)thiazole]", "values": [{"measurement": "misshapen nuclei / nuclear shape of HGPS cells", "setting": "[1]", "result": "significantly reduced the number of HGPS cells with misshapen nuclei"}, {"measurement": "expression and localization of SUN1", "setting": "SUN1 in siLMNA cells", "result": "does not detectably affect the expression and localization of SUN1"}]}
